Assay: Inhibition of RyR2 R4496C mutant (unknown origin)-mediated store-overload induced calcium release expressed in HEK293 cells after 8 to 10 mins by fura-2/AM dye-based fluorescence assay
Type: cell-based
Conditions: Homo sapiens

SMILES | IC50 [mM]
COc1ccc2c(c1)N(C)CCCS2 | > 1
COc1ccccc1OCCNCC(O)COc1ccc2[nH]cnc2c1 (configuration not stated) | > 1
